According to ChEMBL document CHEMBL4118139, “Novel naphthyloxy derivatives - Potent histamine H3 receptor ligands. Synthesis and pharmacological evaluation” (Bioorg Med Chem, 2018):
pIC50, pKi: −log10 of the molar value. Activity calls are given as the source filed them. The calls are words filed in the database; no cut-off is given here.

Experiments:
Histamine H3 receptor [1] = biological target: T1, Histamine H3 receptor (Homo sapiens, UniProt Q9Y5N1); assay: Displacement of [3H]N-alpha-methylhistamine from full length human H3 receptor expressed in HEK293 cell membranes after 90 mins
Mus musculus [2] = assay: (§1) Cognition enhancing effect in albino Swiss CD-1 mouse assessed as reversal of scopolamine-induced amnesia by measuring latency time at 10 mg/kg, ip treated 30 mins prior to acquisition trial followed by scopolamine challenge immediately after acquisition trial by passive avoidance test (reference value: 39.31 +/- 4.01 secs); assay type: functional
HEK293 = assay: Cytotoxicity against HEK293 cells assessed as reduction in cell viability after 72 hrs by MTS assay; assay type: cell-based; settings: Homo sapiens, HEK293, 72 h
Mus musculus [3] = assay: as §1, with “15” for “10”; assay type: functional
[4] = biological target: Histamine H1 receptor (Homo sapiens) (UniProt P35367); assay: Displacement of [3H]-pyrilamine from human histamine H1 receptor expressed in CHO cell membranes at 1 uM relative to chlorpheniramine
[5] = biological target: 5-hydroxytryptamine receptor 2A (Homo sapiens, UniProt P28223); assay: Displacement of [3H]-ketanserin from human 5-HT2A receptor expressed in CHO cell membranes after 1 hr
Rattus norvegicus [6] = assay: In vivo antagonist activity at H3 receptor in RAMH-induced dipsogenic ip dosed Wistar (Krf:(WI) WU) rat model assessed as inhibition of RAMH-water intake administered 30 mins prior to RAMH induction; assay type: functional
[7] = biological target: Histamine H4 receptor (Homo sapiens) (UniProt Q9H3N8); assay: Displacement of [3H]-Histamine from human histamine H4 receptor expressed in insect sf9 cell membranes at 1 uM relative to JNJ-7777120
Histamine H1 receptor = Histamine H1 receptor (Cavia porcellus, UniProt P31389); assay: Antagonist potency at histamine H1 receptor in guinea-pig ileum assessed as inhibition of histamine-induced contractions at 0.3 to 3 uM after 15 mins; assay type: functional; settings: read-out: pA2 (converted)
[8] = biological target: 5-hydroxytryptamine receptor 6 (Homo sapiens, UniProt P50406); assay: Displacement of [3H]-LSD from human 5-HT6 receptor expressed in HEK293 cell membranes after 1 hr
[9] = biological target: D(2) dopamine receptor (Homo sapiens) (UniProt P14416); assay: Displacement of [3H]-spiperone from human dopamine D2 receptor expressed in CHO cell membranes at 1 uM relative to haloperidol
[10] = biological target: D(1A) dopamine receptor (Homo sapiens) (UniProt P21728); assay: Displacement of [3H]-SCH23390 from human dopamine D1 receptor expressed in HEK293 cell membranes at 1 uM relative to fluphenazin
HepG2 = assay: Cytotoxicity against human HepG2 cells assessed as reduction in cell viability after 72 hrs by MTS assay; assay type: cell-based; settings: HepG2, 72 h
[11] = biological target: Histamine H1 receptor (Cavia porcellus) (UniProt P31389); assay: Agonist activity at histamine H1 receptor in guinea-pig ileum assessed as induction of contractions at 1 to 3 uM after 15 mins; assay type: functional
[12] = biological target: Histamine H1 receptor (Cavia porcellus) (UniProt P31389); assay: Antagonist activity at histamine H1 receptor in guinea-pig ileum assessed as inhibition of histamine-induced contractions after 15 mins; assay type: functional
Mus musculus [13] = assay: Analgesic activity in ip dosed albino Swiss CD1 mouse assessed reduction in formalin-induced inflammatory pain by measuring reduction in time spent in licking pretreated prior to formalin injection measured at 15 to 30 mins post formalin injection; assay type: functional
IMR-32 = assay: Cytotoxicity against human IMR32 cells assessed as reduction in cell viability after 72 hrs by MTS assay; assay type: cell-based; settings: IMR-32, 72 h
[14] = biological target: 5-hydroxytryptamine receptor 7 (Homo sapiens, UniProt P34969); assay: Displacement of [3H]-5-carboxyamidotryptamine from human 5-HT7 receptor expressed in HEK293 cell membranes after 1 hr
Histamine H3 receptor [15] = biological target: T1, Histamine H3 receptor; assay: Antagonist activity at human H3 receptor expressed in HEK293 cells assessed as inhibition of RAMH-induced reduction of forskolin-stimulated cAMP accumulation after 30 mins by Ulight-based TR-FRET assay; assay type: functional, cell-based
Salmonella typhimurium [16] = assay: Mutagenicity in Salmonella typhimurium TA100 assessed as increase in number of revertants at 1 uM after 90 mins by Ames test; assay type: toxicity, organism-based; settings: salmonella enterica subsp. enterica serovar typhimurium, 1.5 h
Salmonella typhimurium [17] = assay: Mutagenicity in Salmonella typhimurium TA100 assessed as increase in number of revertants at 10 uM after 90 mins by Ames test; assay type: toxicity, organism-based; settings: salmonella enterica subsp. enterica serovar typhimurium, 1.5 h
[18] = biological target: D(3) dopamine receptor (Homo sapiens) (UniProt P35462); assay: Displacement of [3H]-spiperone from human dopamine D3 receptor expressed in CHO cell membranes at 1 uM relative to haloperidol
CYP3A4 = CYP3A4 (Homo sapiens, UniProt P08684); assay: Inhibition of CYP3A4 (unknown origin) at 25 uM by CYP3A4 P450-Glo assay; assay type: ADME
Mus musculus [19] = assay: Effect on spontaneous locomotor activity in ip dosed albino Swiss CD1 mouse assessed as inhibition of number of light beam crossings treated for 30 mins measured for next 30 mins in 10 min intervals; assay type: organism-based; settings: in vivo, 0.5 h
Mus musculus [20] = assay: Analgesic activity in ip dosed albino Swiss CD1 mouse assessed reduction in formalin-induced inflammatory pain by measuring reduction in time spent in licking treated prior to formalin injection measured at 0 to 5 mins post formalin injection; assay type: functional
Mus musculus [21] = assay: as §1, with “amnesia” for “amnesia by measuring latency time”, “20 to 30” for “10”; assay type: functional, organism-based
[22] = biological target: Muscarinic acetylcholine receptor M3 (Cavia porcellus) (UniProt Q8VH26); assay: Agonist activity at muscarinic M3 receptor in guinea-pig ileum assessed as induction of contractions at 1 to 3 uM after 15 mins; assay type: functional
[23] = biological target: D(1B) dopamine receptor (Homo sapiens) (UniProt P21918); assay: Displacement of [3H]-SCH23390 from human dopamine D5 receptor expressed in HEK293 cell membranes at 1 uM relative to fluphenazin
Mus musculus [24] = assay: as §1, with “30” for “10”; assay type: functional
Histamine H3 receptor [25] = biological target: T1, Histamine H3 receptor; assay: Displacement of […] from full length recombinant human H3 receptor expressed in HEK293 cell membranes after 90 mins by scintillation counting method
Histamine H3 receptor [26] = biological target: Histamine H3 receptor (Rattus norvegicus, UniProt Q9QYN8); assay: Displacement of [3H]-(R)alpha-MeHA from rat brain H3 receptor
Mus musculus [27] = assay: Anticonvulsant activity in ip dosed albino CF-1 mouse assessed as protection against subcutaneous pentylenetetrazole-induced seizures measured after 1 hr; assay type: functional; settings: CF-1, 1 h
Mus musculus [28] = assay: Anticonvulsant activity in ip dosed albino CF-1 mouse assessed as protection against 32 mA current-induced seizure after 1 hr by 6 Hz psychomotor test; assay type: functional; settings: CF-1, ip
Mus musculus [29] = assay: Anticonvulsant activity in ip dosed albino CF-1 mouse assessed as protection against 44 mA current-induced seizure after 0.25 hrs by 6 Hz psychomotor test; assay type: functional; settings: CF-1, ip
Rattus norvegicus [30] = assay: In vivo antagonist activity at H3 receptor in RAMH-induced dipsogenic Wistar (Krf:(WI) WU) rat model assessed as inhibition of RAMH-water intake at 1.25 mg/kg, ip administered 30 mins prior to RAMH induction; assay type: functional
[31] = Neurotoxicity in ip dosed albino CF-1 mouse after 0.25 hrs by rotarod test; assay type: toxicity, organism-based; settings: in vivo
[32] = Therapeutic index, ratio of ip dosed albino CF-1 mouse TD50 to ip dosed albino CF-1 mouse ED50 for MES assay; assay type: toxicity, organism-based; settings: in vivo, read-out: TI
Mus musculus [33] = assay: Anticonvulsant activity in ip dosed albino CF-1 mouse assessed as protection against maximal electroshock-induced seizures after 1 hr; assay type: functional; settings: CF-1, ip

T1 sequence (Q9Y5N1 whole entry): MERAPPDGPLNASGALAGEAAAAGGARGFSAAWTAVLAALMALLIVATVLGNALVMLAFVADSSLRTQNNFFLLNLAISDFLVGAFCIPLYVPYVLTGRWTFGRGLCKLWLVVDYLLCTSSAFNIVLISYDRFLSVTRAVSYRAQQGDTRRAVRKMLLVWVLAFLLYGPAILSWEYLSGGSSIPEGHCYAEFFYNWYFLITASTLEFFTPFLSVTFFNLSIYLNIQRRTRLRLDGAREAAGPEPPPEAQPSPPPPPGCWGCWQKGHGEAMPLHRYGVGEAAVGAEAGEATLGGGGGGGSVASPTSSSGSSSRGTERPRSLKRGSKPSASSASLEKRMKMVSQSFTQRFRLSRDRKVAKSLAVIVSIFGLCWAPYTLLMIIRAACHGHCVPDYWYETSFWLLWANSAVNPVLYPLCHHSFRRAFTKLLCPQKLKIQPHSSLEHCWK
Histamine H1 receptor (Cavia porcellus), sequence (P31389 whole entry): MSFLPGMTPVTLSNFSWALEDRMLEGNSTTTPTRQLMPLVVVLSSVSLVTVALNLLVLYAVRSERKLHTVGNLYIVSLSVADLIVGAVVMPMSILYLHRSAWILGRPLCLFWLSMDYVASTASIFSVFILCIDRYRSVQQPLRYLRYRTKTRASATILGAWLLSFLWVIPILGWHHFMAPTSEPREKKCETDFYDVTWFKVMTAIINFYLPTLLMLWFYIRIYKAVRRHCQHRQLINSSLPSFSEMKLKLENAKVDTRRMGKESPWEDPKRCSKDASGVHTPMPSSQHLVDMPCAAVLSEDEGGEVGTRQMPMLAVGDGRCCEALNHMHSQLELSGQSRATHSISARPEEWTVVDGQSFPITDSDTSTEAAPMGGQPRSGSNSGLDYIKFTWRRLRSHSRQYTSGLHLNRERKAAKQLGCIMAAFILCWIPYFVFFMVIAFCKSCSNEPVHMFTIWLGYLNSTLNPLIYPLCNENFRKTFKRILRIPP
CYP3A4, sequence (P08684 whole entry): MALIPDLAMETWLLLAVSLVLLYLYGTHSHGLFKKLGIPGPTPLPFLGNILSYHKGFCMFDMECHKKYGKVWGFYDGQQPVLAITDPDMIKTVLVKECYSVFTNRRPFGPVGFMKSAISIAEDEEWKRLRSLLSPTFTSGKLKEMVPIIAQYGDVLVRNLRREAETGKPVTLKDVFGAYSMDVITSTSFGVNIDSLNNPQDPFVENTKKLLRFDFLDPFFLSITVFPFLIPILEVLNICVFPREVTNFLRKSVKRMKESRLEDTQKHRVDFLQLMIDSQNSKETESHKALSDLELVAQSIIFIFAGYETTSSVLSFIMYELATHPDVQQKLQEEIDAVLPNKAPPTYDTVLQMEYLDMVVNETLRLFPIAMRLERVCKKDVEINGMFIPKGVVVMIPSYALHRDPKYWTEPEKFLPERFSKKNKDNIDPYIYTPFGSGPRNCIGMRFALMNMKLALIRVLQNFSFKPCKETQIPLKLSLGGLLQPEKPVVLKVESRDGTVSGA
D(2) dopamine receptor (Homo sapiens), sequence (P14416 whole entry): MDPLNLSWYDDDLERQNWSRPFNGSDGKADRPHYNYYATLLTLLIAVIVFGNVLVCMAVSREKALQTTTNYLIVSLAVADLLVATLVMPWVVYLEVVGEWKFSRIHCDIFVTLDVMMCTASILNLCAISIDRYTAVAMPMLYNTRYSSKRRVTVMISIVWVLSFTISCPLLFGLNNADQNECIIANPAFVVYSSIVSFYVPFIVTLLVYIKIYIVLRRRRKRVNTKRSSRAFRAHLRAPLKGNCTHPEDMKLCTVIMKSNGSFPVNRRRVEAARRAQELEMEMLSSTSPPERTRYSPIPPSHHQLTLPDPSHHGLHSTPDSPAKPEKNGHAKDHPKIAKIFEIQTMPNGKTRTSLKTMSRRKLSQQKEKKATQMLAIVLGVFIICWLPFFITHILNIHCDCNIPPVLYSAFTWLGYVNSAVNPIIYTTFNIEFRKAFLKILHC
5-hydroxytryptamine receptor 6, sequence (P50406 whole entry): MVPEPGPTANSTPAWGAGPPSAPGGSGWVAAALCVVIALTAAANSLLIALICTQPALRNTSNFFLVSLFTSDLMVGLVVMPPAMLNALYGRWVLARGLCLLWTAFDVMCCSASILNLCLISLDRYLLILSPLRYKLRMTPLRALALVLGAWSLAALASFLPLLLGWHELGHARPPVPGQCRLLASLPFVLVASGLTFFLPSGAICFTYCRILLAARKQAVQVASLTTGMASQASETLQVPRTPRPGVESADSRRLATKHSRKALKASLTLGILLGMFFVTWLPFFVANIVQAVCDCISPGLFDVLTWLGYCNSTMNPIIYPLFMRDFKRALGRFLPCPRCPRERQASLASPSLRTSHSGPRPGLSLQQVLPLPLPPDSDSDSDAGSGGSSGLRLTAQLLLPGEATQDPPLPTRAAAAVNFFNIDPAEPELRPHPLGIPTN
Histamine H4 receptor (Homo sapiens), sequence (Q9H3N8 whole entry): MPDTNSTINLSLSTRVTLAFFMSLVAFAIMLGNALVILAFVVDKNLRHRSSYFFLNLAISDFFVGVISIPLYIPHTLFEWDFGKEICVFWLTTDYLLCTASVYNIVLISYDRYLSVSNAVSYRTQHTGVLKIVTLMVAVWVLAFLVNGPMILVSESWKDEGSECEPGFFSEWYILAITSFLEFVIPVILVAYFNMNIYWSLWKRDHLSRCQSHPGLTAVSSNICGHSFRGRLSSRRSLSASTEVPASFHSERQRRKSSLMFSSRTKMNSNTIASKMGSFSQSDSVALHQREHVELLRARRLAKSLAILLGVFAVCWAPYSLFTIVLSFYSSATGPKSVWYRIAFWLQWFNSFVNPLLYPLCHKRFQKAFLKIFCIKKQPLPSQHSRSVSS
5-hydroxytryptamine receptor 7, sequence (P34969 whole entry): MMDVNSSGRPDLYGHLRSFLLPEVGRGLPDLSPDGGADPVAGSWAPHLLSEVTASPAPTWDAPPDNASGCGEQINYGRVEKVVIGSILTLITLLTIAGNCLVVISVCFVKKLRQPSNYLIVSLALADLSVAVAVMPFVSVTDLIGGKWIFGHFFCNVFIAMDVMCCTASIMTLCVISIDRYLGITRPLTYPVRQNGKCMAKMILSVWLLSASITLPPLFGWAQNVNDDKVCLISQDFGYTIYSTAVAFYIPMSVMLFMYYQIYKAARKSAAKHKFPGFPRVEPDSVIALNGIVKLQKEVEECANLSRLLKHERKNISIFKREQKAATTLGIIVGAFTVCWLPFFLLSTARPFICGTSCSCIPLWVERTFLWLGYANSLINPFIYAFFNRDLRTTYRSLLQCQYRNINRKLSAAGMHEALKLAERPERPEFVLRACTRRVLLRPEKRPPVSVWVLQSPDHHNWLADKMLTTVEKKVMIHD
Histamine H3 receptor (Rattus norvegicus, UniProt Q9QYN8), sequence (Q9QYN8 whole entry): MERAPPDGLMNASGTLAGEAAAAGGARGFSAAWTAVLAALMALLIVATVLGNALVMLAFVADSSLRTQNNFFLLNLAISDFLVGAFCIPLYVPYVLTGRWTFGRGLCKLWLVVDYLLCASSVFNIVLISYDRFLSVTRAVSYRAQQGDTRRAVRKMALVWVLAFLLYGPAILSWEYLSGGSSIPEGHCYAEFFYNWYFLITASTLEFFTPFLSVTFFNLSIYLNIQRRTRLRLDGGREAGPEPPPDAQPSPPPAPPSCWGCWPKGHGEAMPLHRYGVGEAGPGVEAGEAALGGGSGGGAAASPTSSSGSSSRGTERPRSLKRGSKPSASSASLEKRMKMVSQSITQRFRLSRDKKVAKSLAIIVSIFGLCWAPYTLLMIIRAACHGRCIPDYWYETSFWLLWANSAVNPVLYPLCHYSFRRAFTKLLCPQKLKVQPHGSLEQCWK
Histamine H1 receptor, sequence (P31389 whole entry): as the sequence (P31389 whole entry) above
5-hydroxytryptamine receptor 2A, sequence (P28223 whole entry): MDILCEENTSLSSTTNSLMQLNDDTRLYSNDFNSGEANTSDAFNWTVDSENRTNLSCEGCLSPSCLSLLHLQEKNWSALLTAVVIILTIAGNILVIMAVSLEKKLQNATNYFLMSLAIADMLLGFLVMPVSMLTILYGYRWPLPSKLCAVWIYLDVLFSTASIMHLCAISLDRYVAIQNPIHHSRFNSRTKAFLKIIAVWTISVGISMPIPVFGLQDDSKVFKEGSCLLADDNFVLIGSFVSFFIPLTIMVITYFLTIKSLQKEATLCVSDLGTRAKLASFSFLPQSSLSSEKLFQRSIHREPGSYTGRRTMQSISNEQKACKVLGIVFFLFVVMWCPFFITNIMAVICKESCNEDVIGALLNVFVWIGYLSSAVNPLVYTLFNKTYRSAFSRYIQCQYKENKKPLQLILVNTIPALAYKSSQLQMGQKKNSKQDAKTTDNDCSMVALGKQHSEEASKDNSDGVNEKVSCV
D(1A) dopamine receptor (Homo sapiens), sequence (P21728 whole entry): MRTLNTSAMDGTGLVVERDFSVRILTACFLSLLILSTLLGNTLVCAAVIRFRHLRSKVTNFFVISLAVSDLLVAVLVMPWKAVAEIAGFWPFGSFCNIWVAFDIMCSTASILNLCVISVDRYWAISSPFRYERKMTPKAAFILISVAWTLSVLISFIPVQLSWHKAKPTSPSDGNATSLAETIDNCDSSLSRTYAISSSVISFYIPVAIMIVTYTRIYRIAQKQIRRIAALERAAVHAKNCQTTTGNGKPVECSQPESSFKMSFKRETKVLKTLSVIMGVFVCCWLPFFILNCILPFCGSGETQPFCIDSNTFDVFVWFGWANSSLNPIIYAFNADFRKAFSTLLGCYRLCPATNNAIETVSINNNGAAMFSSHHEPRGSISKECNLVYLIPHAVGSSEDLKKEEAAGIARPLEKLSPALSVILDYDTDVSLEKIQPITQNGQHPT

Question: With `c1ccc2cc(OCCCCCN3CCCCC3)ccc2c1` as the compound, how does the pKi (Histamine H3 receptor [1]) read?
Answer: 7.27

Question: With `CC1CCN(CCCCCOc2cccc3ccccc23)CC1` as the compound, how does the pKi (Histamine H3 receptor [1]) read?
Answer: 7.36

Question: With `c1ccc2cc(OCCCCCCN3CCCCC3)ccc2c1` as the compound, how does the pKi (Histamine H3 receptor [1]) read?
Answer: 7.21

Question: With `CC1CCCN(CCCCCCOc2ccc3ccccc3c2)C1` (stereo unspecified) as the compound, how does the pKi (Histamine H3 receptor [1]) read?
Answer: 7.25

Question: What does the source list for `c1ccc2c(OCCCCCN3CCCCCC3)cccc2c1`?
Answer: Time (Mus musculus [2]): 83.61 s; pIC50 (HEK293): < 4.30; Time (Mus musculus [3]): 91.47 s; inhibition [4]: 19%; pKi [5]: 5.58; ED50 (Rattus norvegicus [6]): 3.68 mg/kg; inhibition [7]: 29%; Kb (Histamine H1 receptor): 708 nM; pKi [8]: 5.74; inhibition [9]: 12%; inhibition [10]: 14%; pIC50 (HepG2): 4.60; Activity [11]: inactive; inhibition [12]: Dose-dependent effect; ED50 (Mus musculus [13]): 20.8 mg/kg; pIC50 (IMR-32): 4.45; pKi [14]: 5.55; pIC50 (Histamine H3 receptor [15]): 6.51; inhibition (Histamine H3 receptor [15]): Dose-dependent effect; Activity (Salmonella typhimurium [16]): Non-Toxic; Activity (Salmonella typhimurium [17]): Non-Toxic; inhibition [18]: 17%; inhibition at 25 µM (CYP3A4): 50%; pKi (Histamine H3 receptor [1]): 7.66; ED50 (Mus musculus [19]): 20.47 mg/kg; ED50 (Mus musculus [20]): 30.6 mg/kg; Activity (Mus musculus [21]): inactive; Activity [22]: inactive; inhibition [23]: -10%

Question: What does the source list for `c1ccc2c(OCCCCCCN3CCCCCC3)cccc2c1`?
Answer: Time (Mus musculus [3]): 87.77 s; Time (Mus musculus [24]): 68.64 s; ED50 (Mus musculus [13]): 18.1 mg/kg; pKi (Histamine H3 receptor [1]): 7.16; ED50 (Mus musculus [19]): 21.66 mg/kg; ED50 (Mus musculus [20]): 28.3 mg/kg; pKi (Histamine H3 receptor [25]): 7.16

Question: With `S=C(NC1CCCCC1)N1CCC(c2cnc[nH]2)CC1` [THIOPERAMIDE] as the compound, how does the pKi (Histamine H3 receptor [26]) read?
Answer: 8.68

Question: With `c1ccc2cc(OCCCCCN3CCCCCC3)ccc2c1` as the compound, how does the pKi (Histamine H3 receptor [1]) read?
Answer: 7.24

Question: With `c1ccc2c(OCCCCCCN3CCCCC3)cccc2c1` as the compound, how does the pKi (Histamine H3 receptor [1]) read?
Answer: 7.28

Question: With `CC1CCCN(CCCCCOc2ccc3ccccc3c2)C1` (stereo unspecified) as the compound, how does the pKi (Histamine H3 receptor [1]) read?
Answer: 7.37

Question: With `c1ccc2cc(OCCCCCCN3CCCCCC3)ccc2c1` as the compound, how does the pKi (Histamine H3 receptor [1]) read?
Answer: 7.16

Question: Which ED50 (Mus musculus [27]) does the source give for `CCCC(CCC)C(=O)O` [VALPROIC ACID] here?
Answer: 220 mg/kg

Question: And the ED50 (Mus musculus [28])?
Answer: 126 mg/kg

Question: And the ED50 (Mus musculus [29])?
Answer: 310 mg/kg

Question: Which inhibition in vivo at 1.25 mg/kg (Rattus norvegicus [30]) does the source give for `Clc1ccc(CCCOCCCN2CCCCC2)cc1` [PITOLISANT] here?
Answer: 87.4%

Question: Which results are given for `CC1CCCN(CCCCCOc2cccc3ccccc23)C1` (stereo unspecified)?
Answer: pIC50 (HEK293): < 4.30; pIC50 (HepG2): 4.41; pIC50 (IMR-32): 4.49; Activity (Salmonella typhimurium [16]): Non-Toxic; Activity (Salmonella typhimurium [17]): Non-Toxic; inhibition at 25 µM (CYP3A4): 50%; pKi (Histamine H3 receptor [1]): 7.48

Question: For `CN1CC[C@]23c4c5ccc(O)c4O[C@H]2[C@@H](O)C=C[C@H]3[C@H]1C5` [MORPHINE], which ED50 (Mus musculus [20]) is on record?
Answer: 2.38 mg/kg

Question: For `CC(=O)Oc1ccccc1C(=O)O` [ASPIRIN], which ED50 (Mus musculus [13]) is on record?
Answer: 25.2 mg/kg

Question: With `CC1CCN(CCCCCOc2ccc3ccccc3c2)CC1` as the compound, how does the pKi (Histamine H3 receptor [1]) read?
Answer: 7.02

Question: With `Nc1nnc(-c2cccc(Cl)c2Cl)c(N)n1` [LAMOTRIGINE] as the compound, how does the TD50 at 0.25 h [31] read?
Answer: 30 mg/kg

Question: And the ED50 (Mus musculus [27])?
Answer: > 40 mg/kg

Question: What about the selectivity ratio [32] of the same compound?
Answer: 4

Question: And the ED50 (Mus musculus [33])?
Answer: 7.47 mg/kg

Question: And the ED50 (Mus musculus [28])?
Answer: > 60 mg/kg

Question: What about the ED50 (Mus musculus [29]) of the same compound?
Answer: > 60 mg/kg

Question: With `CC1CCCN(CCCCCCOc2cccc3ccccc23)C1` (stereo unspecified) as the compound, how does the pKi (Histamine H3 receptor [1]) read?
Answer: 7.32

Question: With `CC1CCN(CCCCCCOc2cccc3ccccc23)CC1` as the compound, how does the pKi (Histamine H3 receptor [1]) read?
Answer: 6.90

Question: With `COc1cccc2c1C(=O)c1c(O)c3c(c(O)c1C2=O)C[C@@](O)(C(=O)CO)C[C@@H]3O[C@H]1C[C@H](N)[C@H](O)[C@H](C)O1` [DOXORUBICIN] as the compound, how does the pIC50 (HEK293) read?
Answer: 6.44

Question: What about the pIC50 (HepG2) of the same compound?
Answer: 6.26

Question: What about the pIC50 (IMR-32) of the same compound?
Answer: 7.30

Question: With `CC1CCN(CCCCCCOc2ccc3ccccc3c2)CC1` as the compound, how does the pKi (Histamine H3 receptor [1]) read?
Answer: 7.04
